Data published in PMC6934184, “Selective DNA-PKcs inhibition extends the therapeutic index of localized radiotherapy and chemotherapy” (The Journal of Clinical Investigation, 2019).

Molecular target: T1, MKNK1 (MNK1) (Homo sapiens, UniProt Q9BUB5)
T1 construct: purchased Thermo Fisher Scientific (Life Technologies) SelectScreen
Experiment: SelectScreen Z'LYTE
Format: biochemical
Summary of the method: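 SelectScreen broad panel; activity (Z'LYTE, Adapta) plus binding formats. ATP: Km app for CSF1R Z'LYTE; 10 for CAMK1 Adapta. Readout = % per kinase.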

T1 sequence (Q9BUB5 whole entry): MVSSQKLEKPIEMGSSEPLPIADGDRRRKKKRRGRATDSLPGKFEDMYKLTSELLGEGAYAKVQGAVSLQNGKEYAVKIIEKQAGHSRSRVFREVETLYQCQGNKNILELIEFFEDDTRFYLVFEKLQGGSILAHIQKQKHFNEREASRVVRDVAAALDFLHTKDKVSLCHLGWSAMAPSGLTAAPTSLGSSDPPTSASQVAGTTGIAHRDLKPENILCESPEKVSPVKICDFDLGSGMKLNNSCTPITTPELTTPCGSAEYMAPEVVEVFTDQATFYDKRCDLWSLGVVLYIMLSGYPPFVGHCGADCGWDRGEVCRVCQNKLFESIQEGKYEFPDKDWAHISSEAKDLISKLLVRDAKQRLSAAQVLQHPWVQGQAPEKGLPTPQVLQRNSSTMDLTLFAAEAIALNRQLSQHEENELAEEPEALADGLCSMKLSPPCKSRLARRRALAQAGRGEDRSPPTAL

Question: How did the inhibition at 1 µM turn out when `CN(C(=O)CN1CCOCC1)c1ccc2sc3c(-c4cccc5c(=O)cc(N6CC7CCC(C6)O7)oc45)cccc3c2c1` [NU5455] was run?
Answer: -10.7%
